The structures appear in SMILES notation.

This assay can be described thus: Inhibition of rat intestinal alpha-glucosidase.

Regarding `COc1ccc(C=CC(=O)C[C@@H]2O[C@H](CO)[C@@H](O)[C@H](O)[C@H]2O)cc1OC` [(E)-4-(3,4-dimethoxyphenyl)-1-((2S,3R,4R,5S,6R)-3,4,5-trihydroxy-6-(hydroxymethyl)tetrahydro-2H-pyran-2-yl)but-3-en-2-one], it took 51.5 µM to reach half-maximal inhibition (IC50).

The values above are taken from BindingDB's records for doi:10.1016/j.bmcl.2009.03.136 (Central Drug Research Institute, 2009).
